Test results published in ChEMBL document CHEMBL5214884, “Recent research progress of Uncaria spp. based on alkaloids: phytochemistry, pharmacology and structural chemistry” (Eur J Med Chem, 2021).
Each block holds one compound with its values, some of them ahead of it.

Key:
[1] = Inhibition of alpha glucosidase (unknown origin) using p-nitrophenyl-a-D-glucopyranoside as substrate incubated for 20 mins by UV based microplate reading method; parameters: species or system Homo sapiens
RAW264.7 = test: Inhibition of LPS-induced NO release in mouse RAW264.7 cells preincubated for 2 hrs followed by LPS addition measured after 24 hrs; type: functional, cell-based
Rattus norvegicus = test: Hypotensive effect against Phe-induced contraction in rat mesentric arteries assessed as relaxation effect […]; type: functional
Acetylcholinesterase [2] = molecular target: T1, Acetylcholinesterase (Homo sapiens, UniProt P22303); test: Inhibition of AChE (unknown origin) using acetylcholine as substrate by BioTek Synergy HT microplate reader method
T1 sequence (P22303 whole entry): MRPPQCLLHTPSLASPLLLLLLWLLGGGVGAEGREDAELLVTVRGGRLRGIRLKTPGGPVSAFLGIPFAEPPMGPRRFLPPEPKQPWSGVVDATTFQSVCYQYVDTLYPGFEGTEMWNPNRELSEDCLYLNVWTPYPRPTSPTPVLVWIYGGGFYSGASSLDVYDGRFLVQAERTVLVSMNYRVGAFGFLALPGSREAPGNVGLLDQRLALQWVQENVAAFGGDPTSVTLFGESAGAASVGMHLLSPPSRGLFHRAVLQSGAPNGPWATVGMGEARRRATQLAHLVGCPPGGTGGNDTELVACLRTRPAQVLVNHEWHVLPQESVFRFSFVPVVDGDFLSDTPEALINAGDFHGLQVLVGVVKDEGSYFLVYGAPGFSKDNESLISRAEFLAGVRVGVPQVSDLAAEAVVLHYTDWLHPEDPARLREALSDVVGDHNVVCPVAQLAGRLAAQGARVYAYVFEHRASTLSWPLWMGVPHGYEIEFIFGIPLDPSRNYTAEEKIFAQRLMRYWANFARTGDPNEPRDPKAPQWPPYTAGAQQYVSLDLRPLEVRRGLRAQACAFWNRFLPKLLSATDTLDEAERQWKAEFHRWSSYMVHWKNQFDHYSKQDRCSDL

PC-12 [3] = test: Neuroprotective activity against mNGF-differentiated rat PC-12 cells assessed as inhibition of caspase 9; type: functional, cell-based
PC-12 [4] = test: Neuroprotective activity against mNGF-differentiated rat PC-12 cells assessed as inhibition of caspase 3; type: functional, cell-based
[5] = Inhibition of human carboxylesterase using 4-benzoyl-N-butyl-1,8-naphthalimide as substrate by fluorescence based assay
Acetylcholinesterase [6] = molecular target: T1, Acetylcholinesterase; test: Inhibition of AChE (unknown origin) incubated for 20 mins by Ellman's method
[7] = Inhibition of alpha glucosidase (unknown origin) using p-nitrophenyl alpha-D-glucoside as substrate preincubated for 60 mins followed by substrate addition measured after 30 mins by spectrophotometric analysis; parameters: species or system Homo sapiens
[8] = molecular target: T2, Melatonin receptor type 1A (Homo sapiens, UniProt P48039); test: Agonist activity at human MT1R stably expressed in HEK293 cells at 1 mM by FlexStation3 Bench-top MultiMode Microplate Reader relative to control; type: functional, cell-based; details: filed as agonist
T2 sequence (P48039 whole entry): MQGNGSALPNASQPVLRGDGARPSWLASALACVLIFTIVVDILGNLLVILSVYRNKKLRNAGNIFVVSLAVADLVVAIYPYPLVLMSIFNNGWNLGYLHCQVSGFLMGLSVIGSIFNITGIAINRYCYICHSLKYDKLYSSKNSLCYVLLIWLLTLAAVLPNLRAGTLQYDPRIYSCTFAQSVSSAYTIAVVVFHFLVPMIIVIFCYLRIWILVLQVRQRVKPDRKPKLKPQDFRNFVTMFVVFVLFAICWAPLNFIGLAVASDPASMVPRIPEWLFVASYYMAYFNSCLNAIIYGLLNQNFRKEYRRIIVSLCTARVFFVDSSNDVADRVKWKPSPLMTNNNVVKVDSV

[9] = molecular target: T3, Melatonin receptor type 1B (Homo sapiens) (UniProt P49286); test: Agonist activity at human MT2R stably expressed in HEK293 cells at 1 mM by FlexStation3 Bench-top MultiMode Microplate Reader relative to control; type: functional, cell-based; details: filed as agonist
T3 sequence (whole entry): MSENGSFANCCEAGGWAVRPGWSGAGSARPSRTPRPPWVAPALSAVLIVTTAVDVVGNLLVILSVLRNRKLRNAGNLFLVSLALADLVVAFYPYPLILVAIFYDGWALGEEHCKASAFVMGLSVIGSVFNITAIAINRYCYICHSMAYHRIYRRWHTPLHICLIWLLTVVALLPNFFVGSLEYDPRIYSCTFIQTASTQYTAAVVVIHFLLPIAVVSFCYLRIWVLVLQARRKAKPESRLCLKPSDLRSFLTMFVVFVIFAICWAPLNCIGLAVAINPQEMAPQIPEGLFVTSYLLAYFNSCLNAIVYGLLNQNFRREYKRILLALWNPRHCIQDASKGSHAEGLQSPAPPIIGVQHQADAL

[10] = Inhibition of LPS-induced NO release in mouse N9 microglial cells measured after 48 hrs by Griess reaction assay; type: functional, cell-based; details: N9, 48 h
Mus musculus [11] = organism: Mus musculus; test: Antiinflammatory activity against Balb/c mouse serum assessed as reduction of IL-4 release measured after 2 hrs by cytokine Elisa multiplex Q-plex system method relative to control; type: functional; parameters: scale not given: the % may be the effect or the level left
Mus musculus [12] = organism: Mus musculus; test: Antiinflammatory activity against Balb/c mouse serum assessed as inhibition of IL-1alpha release measured after 2 hrs by cytokine Elisa multiplex Q-plex system method relative to control; type: functional; parameters: scale not given: the % may be the effect or the level left
Mus musculus [13] = organism: Mus musculus; test: Antiinflammatory activity against Balb/c mouse serum assessed as inhibition of IL-1beta release measured after 2 hrs by cytokine Elisa multiplex Q-plex system method relative to control; type: functional; parameters: scale not given: the % may be the effect or the level left
Mus musculus [14] = organism: Mus musculus; test: Antiinflammatory activity against Balb/c mouse serum assessed as inhibition of IL-17 release measured after 2 hrs by cytokine Elisa multiplex Q-plex system method relative to control; type: functional; parameters: scale not given: the % may be the effect or the level left
Mus musculus [15] = organism: Mus musculus; test: Antiinflammatory activity against Balb/c mouse serum assessed as inhibition of TNF-alpha release measured after 2 hrs by cytokine Elisa multiplex Q-plex system method relative to control; type: functional; parameters: scale not given: the % may be the effect or the level left
[16] = molecular target: T2, Melatonin receptor type 1A; test: Agonist activity at human MT1R stably expressed in HEK293 cells by FlexStation3 Bench-top MultiMode Microplate Reader; type: functional, cell-based
[17] = molecular target: T4, Melatonin receptor type 1B (Homo sapiens, UniProt P49286); test: Agonist activity at human MT2R stably expressed in HEK293 cells by FlexStation3 Bench-top MultiMode Microplate Reader; type: functional, cell-based
T4 sequence (P49286 whole entry): T3 sequence (whole entry)

- IC50 [1]: 17.3 µM
Compound: Oc1cc(O)c2c(c1)O[C@H](c1ccc(O)c(O)c1)[C@@H](O)[C@@H]2c1c(O)cc(O)c2c1O[C@H](c1ccc(O)c(O)c1)[C@@H](O)C2

- IC50 (RAW264.7): 7.01 µM
Compound: C[C@H]1[C@H](C)CC[C@]2(C(=O)O)CC[C@]3(C(=O)/C=C/c4ccc(O)cc4)C(=CC[C@@H]4[C@@]5(C)CC[C@H](O)C(C)(C)[C@@H]5CC[C@]43C)[C@H]12

Compound: CC[C@H]1CN2CCc3c([nH]c4ccccc34)[C@H]2C[C@H]1/C(=C\OC)C(=O)OC
- IC50 (Rattus norvegicus): 0.18 µM

Compound: C/C=C1\CN2CCc3c([nH]c4ccccc34)[C@@H]2C[C@@H]1/C(=C\OC)C(=O)OC
- IC50 (Acetylcholinesterase [2]): 63.9 µM

- IC50 (PC-12 [3]): 24.5 µM
- IC50 (PC-12 [4]): 25.6 µM
Compound: C=C[C@H]1[C@H](O[C@@H]2O[C@H](CO)[C@@H](O)[C@H](O)[C@H]2O)OC=C(C(=O)OC)[C@H]1C[C@@H]1N[C@H](C(=O)O)Cc2c1[nH]c1ccccc21

- IC50 [5]: 4.01 µM
Compound: CC1(C)CC[C@]2(C(=O)O)CC[C@]3(C)C(=CC[C@@H]4[C@@]5(C)CC[C@H](O)C(C)(C)[C@@H]5CC[C@]43C)[C@@H]2C1 [OLEANOLIC_ACID]

Compound: C=C[C@H]1COC(=O)C2=CN3CCc4c([nH]c5cccc(O[C@@H]6O[C@H](CO)[C@@H](O)[C@H](O)[C@H]6O)c45)[C@@H]3C[C@H]21
- IC50 (Acetylcholinesterase [6]): 21.1 µM

- IC50 [7]: 49 µM
Compound: COCC1=C(C)[C@H]2C3=CC[C@@H]4[C@@]5(C)CC[C@H](O)C(C)(C)[C@@H]5C(=O)C[C@@]4(C)[C@]3(C)CC[C@@]2(C(=O)O)CC1

- IC50 [5]: 4.01 µM
- IC50 [7]: 16 µM
Compound: C[C@H]1[C@H](C)CC[C@]2(C(=O)O)CC[C@]3(C)C(=CC[C@@H]4[C@@]5(C)CC[C@H](O)C(C)(C)[C@@H]5CC[C@]43C)[C@H]12 [URSOLIC ACID]

- Activity [8]: 79.6%
- Activity [9]: 46.3%
Compound: C=C[C@H]1[C@H](O[C@@H]2O[C@H](CO)[C@@H](O)[C@H](O)[C@@H]2O[C@@H]2O[C@H](CO[C@@H]3O[C@H](CO)[C@@H](O)[C@H](O)[C@H]3O)[C@@H](O)[C@H](O)[C@H]2O)OC=C2C(=O)N3CCc4c([nH]c5cc(O)ccc45)[C@H]3C[C@H]21

- IC50 [1]: 15.5 µM
Compound: Cc1cc2c(cc1O)OC1(CC1)C(O)C2 (stereo unspecified)

- IC50 [5]: 4.01 µM
Compound: C[C@H]1[C@H](C)CC[C@]2(C(=O)O)CC[C@]3(C)C(=CC[C@@H]4[C@@]5(C)CC[C@H](O)C(C)(C)[C@@H]5[C@H](O)C[C@]43C)[C@H]12

Compound: C=C[C@@H]1C(C[C@@H]2NCCc3c2[nH]c2ccccc32)C(C(=O)OC)=CO[C@H]1O[C@@H]1O[C@H](CO)[C@@H](O)[C@H](O)[C@H]1O (stereo partly specified)
- IC50 [10]: 8.3 µM

Compound: COC(=O)C1=CO[C@@H](C)[C@H]2CN3CC[C@]4(C(=O)Nc5ccccc54)[C@@H]3CC12 (stereo partly specified)
- Activity (Mus musculus [11]): 40%
- Activity (Mus musculus [12]): 50%
- Activity (Mus musculus [13]): 50%
- Activity (Mus musculus [14]): 50%
- Activity (Mus musculus [15]): 50%

- IC50 [1]: 27 µM
Compound: O=C1CC[C@H](Cc2ccc(O)c(O)c2)O1

- EC50 [16]: 25.8 µM
- EC50 [17]: 47.3 µM
Compound: Oc1cc(O)c2c(c1)O[C@H](c1ccc(O)c(O)c1)[C@@H](O)C2 [CIANIDANOL]

- IC50 (RAW264.7): 1.48 µM
Compound: C=C1CC[C@]2(C(=O)O)CC[C@]3(C)C(=CC[C@@H]4[C@@]5(C)CC[C@H](O)C(C)(C)[C@@H]5[C@H](O)C[C@]43C)[C@@H]2[C@]1(C)O

- IC50 [5]: 4.01 µM
Compound: CO[C@H]1C=C2[C@@H]3C[C@H](C)CC[C@]3(C(=O)O)CC[C@@]2(C)[C@]2(C)CC[C@H]3C(C)(C)[C@@H](O)CC[C@]3(C)[C@@H]12
